For data set [1] the following is noted: cited from earlier work.
Data set [2] has as its system normal skin. Briefly: Human Repeat Insult Patch Test (RIPT). Type of data set: in vivo. As to conditions: RIPT positive control. Here is the method:
The objective of the study was to determine irritation and sensitization potential of the composition as a test material after repeated application to skin. Contact sensitization was measured by treatment emergent adverse events (TEAE5), reaction grade and investigator assessment of irritation and sensitization. An informed consent was obtained from each volunteer prior to initiating the study. The consent form described reasons for the study, possible adverse effects, associated risks and potential benefits of the treatment and their limits of liability. […] The present composition was tested under occlusive conditions and placed on an 8-millimeter aluminum Finn Chamber (Epitest Ltd. Oy, Tuusula, Finland) supported on Scanpor Tape (Norgesplaster A/S, Kristiansand, Norway). Alternatively, an 8-mm filter paper coated aluminum Finn Chamber AQUA can be supported on a thin flexible transparent polyurethane rectangular film coated on one side with a medical grade acrylic adhesive, consistent with adhesive used in state-of-the-art hypoallergenic surgical tapes or a 7 mm IQ-ULTRA closed cell system. Such a closed cell system is made of additive-free polyethylene plastic foam with a filter paper incorporated (supplied in units of 10 chambers on a hypoallergenic non-woven adhesive tape having a width of 52 mm and a length of 118 mm) or other equivalents. […] Test materials to be tested in an open patch were applied and rubbed directly onto the back of the subject. Approximately 0.02-0.05 mL (in case of liquids) and/or 0.02-0.05 gm (in case of solids) of the test material was used for the study. Liquid test material was dispensed on a 7.5 mm paper disk, which fit in the Finn Chamber. The following procedure was applied: • 1. Subjects were requested to bathe or wash as usual before arrival at the facility. • 2. […] Patches remained in place for 48 hours after the first application. • 4. Subjects were instructed not to remove the patches prior to their 48 hour scheduled visit. • 5. Thereafter, subjects were instructed to remove patches 24 hours after application for the remainder of the study. • 6. […] Prior to each reapplication, the test sites evaluated by trained laboratory personnel. • 8. Following a 10-14 day rest period a retest/challenge dose was applied once to a previously unexposed test site. Test sites were evaluated by trained laboratory personnel 48 and 96 hours after application. In the event of an adverse reaction, the area of erythema and edema were to be measured. Edema is estimated by the evaluation of the skin with respect to the contour of the unaffected normal skin. Subjects were instructed to report any delayed reactions that might occur after the final reading. […] Site discontinued • Dc: Subject discontinued voluntarily • DcI: Subject discontinued per Investigator

For `CC(C)C1CC[C@@H](C)C[C@H]1O` (single isomer, unassigned; (-)) [Menthol crystals, (−)-menthol], the “solubility in oil and alcohol” value in data set [1] was “soluble in both oil and alcohol”.
Turning to `CCCCCCCCCCCCOS(=O)(=O)[O-].[Na+]` [2.0% Sodium Lauryl Sulfate Solution, Sodium Lauryl Sulfate], in data set [2] (Grade 1: erythema), the “subjects with a Grade 1 reaction” value is on record as 12 subjects. In addition, the “subjects with a Grade 2 reaction” value in data set [2] (Grade 2: erythema and induration) turned out to be 4 subjects. Besides, in data set [2] (Grade 3: erythema, induration and vesicles), the “subjects with a Grade 3 reaction” value turned out to be 1 subjects. Further, the “subjects with a Grade 4 reaction” value in data set [2] (Grade 4: erythema, induration and bullae) came to 3 subjects. Further, the “subjects with a delayed Grade 2 reaction” value in data set [2] (delayed reaction) was determined as 1 subjects.
